We go through three compounds from patent US20200392150A1, “Diaryl-B-Lactam Compound and Preparation Method and Pharmaceutical Use Thereof” (Fudan University, priority 2016, published 2020).

For one data set, the target named is T1, Pig brain tubulin (Sus scrofa, UniProt P02550+P02554).
T1 construct: purchased; host or cells: pig brain
The experiment in a line: In vitro tubulin polymerization assay. Format: biochemical. Here is the method:
In vitro tubulin polymerization assay Pig brain tubulin was obtained commercially and stored in aliquots at −70° C. […] The absorbance of wavelength at 340 nm was detected every 1 min for 20 min by Spectra Max 190 spectrophotometer (Molecular Device) at 37° C. The results were indicated as mean values from three independent determinations.

The subject of data set [1] is human umbilical veinendothelial cells (HUVECs). Description: Capillary-like tube formation assay. Format: cell-based. As to conditions: HUVECs on matrigel, 12 h. Here is the method: […] matrigel (Corning) per well was added to 96-well plate and pre-incubated at 37° C. for 1 h for gelation. 3*10^4 human umbilical veinendothelial cells (HUVECs) in […] medium per well containing indicated concentrations of 69, 70 and 97, CA-4 as positive control, or diluent (0.2% DMSO) as negative control, respectively, were seeded to 96-well plates on the matrigel layer, followed by continual incubation at 37° C. for 12 h to allow capillary-like tube formation. Images were captured with a CCD Sensicam camera mounted on an Olympus inverted microscope. Representative data from three independent experiments were shown.

For data set [2], the system named is VEGF induced angiogenesis. Description: Matrigel plug assay. Format: in vivo, Balb/C nude mice. To be noted: nude mice, s.c. matrigel with 100 ng/mL VEGF-A165, 2 weeks. Here is the method:
6 weeks old female Balb/C nude mice were purchased from Shanghai Slac Laboratory Animal Co. Ltd. (Shanghai, China). Matrigel containing 100 ng/mL human recombinant VEGF-A165 (Peprotech, Rocky Hill, N.J.) were mixed with indicated concentrations of 69, 70 and 97, or diluent (0.2% DMSO) as negative control at 4° C. Then, 0.5 mL of the matrigel mixture per mouse was injected subcutaneously into nude mice (n=4) in the dorsal region to generate matrigel plugs. 2 weeks later, the mice were sacrificed and matrigel plugs were recovered. Representative data from three independent experiments were shown.

The subject of data set [3] is p-histone H3, cyclin B1 and BuBR1 in HeLa cells. Description: Cell cycle associated proteins assay. As to conditions: 24 h, western blot and qPCR. Format: cell-based, human. The method, then:
A. HeLa cells were treated with 69, 70, 97 or DMSO for 24 h. After being harvested, the cells were lysed, and the concentrations of total protein were determined by BCA protein assay kit (Beyotime, China). […] The membrane was blocked with 5% BSA in TBST for 1.5 h, then incubated overnight with specific primary antibodies (Proteintech) at 4° C. After being washed three times by TBST, the membrane was incubated with specific secondary antibodies (Abnova, Taipei, China) at room temperature for 2 h. Finally, chemiluminescent reagents (Millipore) were employed to detect the protein bands.
B. Quantitative PCR assay: HeLa cells were treated with 69, 70 or 97. The expression level of mRNA of target proteins was tested with qPCR kit (Takara).

The test system of the next data set is cells. The experiment in a line: Cell apoptosis analysis (Annexin V/PI flow cytometry). The class given is cell-based. As to conditions: 48 h. The method, then: Cell apoptosis was detected using FITC Annexin V Apoptosis Detection Kit (BD Biosciences) according to manufacturer's instructions. Briefly, cells were incubated with indicated concentrations of 69, 70 and 97, CA-4 as positive control or diluent (0.2% DMSO) as negative control for 48 h. Then the cells were harvested, washed twice with PBS, and re-suspended in binding buffer. After being stained with Annexin-V and PI for 15 min in the dark place, cells were subjected to flow cytometry (Cytomics FC 500 MPL, Beckman Coulter) analysis. The results were indicated as mean values from three independent determinations.

A further data set deals with A2780. Description: In vitro cell growth inhibition assay (MTT). The class given is cell-based, human. As to conditions: A2780 human ovarian cancer cell line, 48 h, MTT; read-out: IC50 A2780. A digest of the protocol: (§1)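 SKOV3, A2780 or HeLa cells were seeded at 5000 per well, allowed to adhere overnight, then treated 48 h with compounds; 0.2% DMSO served as control. IC50 values came from growth inhibition rates.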

The subject of a further data set is Hela. The experiment in a line: In vitro cell growth inhibition assay (MTT). Format: cell-based, human. As to conditions: Hela human cervical cancer cell line, 48 h, MTT; read-out: IC50 Hela. A digest of the protocol:
as §1

The test system of the next data set is MDA-MB-231. Description: In vitro cell growth inhibition assay (MTT). The class given is cell-based, human. As to conditions: MDA-MB-231 human breast cancer cell line, 48 h, MTT; read-out: IC50 MDA-MB-231. A digest of the protocol: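 Following overnight adherence of 5000 cells per well, compounds or 0.2% DMSO were applied for 48 h. Medium was then swapped for 0.5 mg/mL MTT medium (4 h, 37° C), crystals dissolved in DMSO, and plates read at 540 nm.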

The next data set concerns SKOV3. The experiment in a line: In vitro cell growth inhibition assay (MTT). Format: cell-based, human. As to conditions: SK-OV-3; SKOV-3 human ovarian cancer cell line, 48 h, MTT; read-out: IC50 SKOV3. A digest of the protocol: as §1
The next data set is described as follows: Acute toxicity assay. As to conditions: both sexes, mouse, in vivo, ip; KM mice, single intraperitoneal injection, 14 days. Format: in vivo. The method, then: KM mice were housed individually in a specific pathogen free facility. Groups of mice (n=10 per group, half male and half female) were injected intraperitoneally once with various dosages of 69 (95, 70, 50, 35, 25 mg/kg), 70 (500, 425, 350, 275, 200 mg/kg), 97 (275, 200, 150, 125 and 100 mg/kg) or vehicle (8.3% cremohorp EL and 8.3% alcohol in PBS) as negative control, respectively. 69, 70 and 97 was dissolved in cremeohore EL and alcohol mixture (1:1, v/v) and further diluted with PBS (1:5, v/v). The death of mice were monitored daily and recorded up to 14 days after injection.

Entries after “also recorded” stand apart in the source; their conditions may differ. Like-named read-outs stand apart in the source and are kept apart here.

T1 sequence (P02554 whole entry): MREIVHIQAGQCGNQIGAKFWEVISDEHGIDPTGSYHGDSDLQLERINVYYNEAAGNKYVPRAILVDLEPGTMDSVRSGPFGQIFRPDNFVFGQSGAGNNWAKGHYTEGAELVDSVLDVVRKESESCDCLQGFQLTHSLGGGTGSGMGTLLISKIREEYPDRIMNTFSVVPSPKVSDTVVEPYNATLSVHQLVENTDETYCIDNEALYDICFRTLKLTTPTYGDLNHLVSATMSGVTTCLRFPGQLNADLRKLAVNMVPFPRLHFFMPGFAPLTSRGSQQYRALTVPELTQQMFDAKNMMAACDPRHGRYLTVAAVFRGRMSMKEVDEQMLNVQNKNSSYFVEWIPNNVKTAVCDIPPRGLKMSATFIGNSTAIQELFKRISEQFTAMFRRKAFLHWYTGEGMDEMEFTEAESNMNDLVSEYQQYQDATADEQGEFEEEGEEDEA
T1 sequence (P02550 whole entry): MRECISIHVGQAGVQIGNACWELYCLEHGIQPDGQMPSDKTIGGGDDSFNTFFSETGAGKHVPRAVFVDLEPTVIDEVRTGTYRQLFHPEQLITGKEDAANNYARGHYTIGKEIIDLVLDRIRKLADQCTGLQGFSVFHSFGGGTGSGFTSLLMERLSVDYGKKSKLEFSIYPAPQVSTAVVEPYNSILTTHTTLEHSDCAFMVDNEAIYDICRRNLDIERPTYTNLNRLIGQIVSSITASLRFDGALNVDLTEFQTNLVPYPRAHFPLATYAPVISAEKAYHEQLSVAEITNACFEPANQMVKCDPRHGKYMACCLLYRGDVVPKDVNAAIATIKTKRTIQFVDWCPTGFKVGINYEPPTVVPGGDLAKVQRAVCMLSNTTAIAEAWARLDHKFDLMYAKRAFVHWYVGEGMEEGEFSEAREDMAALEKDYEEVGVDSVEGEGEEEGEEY

On to `COc1ccc([C@H]2[C@H](CO)C(=O)N2c2cc(OC)c(OC)c(OC)c2)cc1O` [Compound 69, (3R,4R)-4-(3-hydroxy-4-methoxyphenyl)-3-(hydroxymethyl)-1-(3,4,5-trimethoxyphenyl)azetidin-2-one], for which the midpoint of inhibition at Pig brain tubulin, the IC50, lay at 3500 nM. In [1], the capillary-like tube formation entry is recorded as “significantly inhibit the formation of capillary-like structures; also recorded: almost completely disrupted the capillary-like tube formation”. Moreover, the “VEGF induced angiogenesis in matrigel plugs” value (“VEGF induced angiogenesis” below) in [2] is reported as “significantly inhibit VEGF-mediated neovascularization; also recorded: suppressed VEGF induced angiogenesis”. In addition, the “expression of p-histone H3, cyclin B1 and BuBR1” value (“expression of p-histone H3” for short) in data set [3] is “significantly promote the expression of phosphorylated histone H3, cyclinB1, and mitotic checkpoint protein BuBR1; also recorded: significantly induce the expression of p-histone H3, cyclin B1 and BuBR1”. Besides, the cellular apoptosis entry with cells is on record as “significantly promote apoptosis; also recorded: significantly induce cellular apoptosis”.
For the compound `COc1ccc([C@H]2[C@@H](C)C(=O)N2c2cc(OC)c(OC)c(OC)c2)cc1O` [Compound 70, (3R,4R)-4-(3-hydroxy-4-methoxyphenyl)-3-methyl-1-(3,4,5-trimethoxyphenyl)azetidin-2-one], the IC50 came to 35 nM in the data set with A2780; 74 nM in the data set on Hela; 67 nM in the data set with MDA-MB-231; 51 nM with SKOV3; 1700 nM against Pig brain tubulin. Besides, the capillary-like tube formation entry in [1] is given as “significantly inhibit the formation of capillary-like structures; also recorded: almost completely disrupted the capillary-like tube formation”. Further, the “VEGF induced angiogenesis” value in data set [2] is on record as “significantly inhibit VEGF-mediated neovascularization; also recorded: suppressed VEGF induced angiogenesis”. Further, in [3], the “expression of p-histone H3” value was “significantly promote the expression of phosphorylated histone H3, cyclinB1, and mitotic checkpoint protein BuBR1; also recorded: significantly induce the expression of p-histone H3, cyclin B1 and BuBR1”. In the data set with cells, the cellular apoptosis entry was “significantly promote apoptosis; also recorded: significantly induce cellular apoptosis”. This compound also displayed a 50% lethal dose (LD50) at 14 days in “Acute toxicity assay” of over 500 mg/kg.
Take `COc1ccc([C@H]2[C@H](C)C(=O)N2c2cc(OC)c(OC)c(OC)c2)cc1O` [Compound 97, (3S,4R)-4-(3-hydroxy-4-methoxyphenyl)-3-methyl-1-(3,4,5-trimethoxyphenyl)azetidin-2-one]: the IC50 is 2 nM with A2780; 1 nM in the data set with Hela; 3 nM in the data set with MDA-MB-231; 3 nM with SKOV3; 1600 nM on Pig brain tubulin (pig brain tubulin, absorbance 340 nm, 20 min, 37° C., read-out: IC50 disruption of tubulin assembly). Moreover, in [1], the capillary-like tube formation entry is “significantly inhibit the formation of capillary-like structures; also recorded: almost completely disrupted the capillary-like tube formation”. The “VEGF induced angiogenesis” value in data set [2] is listed as “significantly inhibit VEGF-mediated neovascularization; also recorded: suppressed VEGF induced angiogenesis”. Further, the “expression of p-histone H3” value in data set [3] was “significantly promote the expression of phosphorylated histone H3, cyclinB1, and mitotic checkpoint protein BuBR1; also recorded: significantly induce the expression of p-histone H3, cyclin B1 and BuBR1”. For the same compound, the cellular apoptosis result in the data set on cells is listed as “significantly promote apoptosis; also recorded: significantly induce cellular apoptosis”.

As usually defined, the IC50 is the concentration that inhibits the measured activity by half. For orientation: LD50 means the dose at which mortality reaches 50%. Higher therefore signals a less toxic substance.
